The values below come from patent publication US20230391776A1, “AMIDE OXAZOLE COMPOUND” (MEDSHINE DISCOVERY INC., priority 2020, published 2023).

Structures are written as SMILES.

Assay [1] addresses T1, human IRAK4 (Homo sapiens, UniProt Q9NWZ3).
T1 construct: purchased Reaction Biology Corp
T1 sequence (Q9NWZ3 1-460): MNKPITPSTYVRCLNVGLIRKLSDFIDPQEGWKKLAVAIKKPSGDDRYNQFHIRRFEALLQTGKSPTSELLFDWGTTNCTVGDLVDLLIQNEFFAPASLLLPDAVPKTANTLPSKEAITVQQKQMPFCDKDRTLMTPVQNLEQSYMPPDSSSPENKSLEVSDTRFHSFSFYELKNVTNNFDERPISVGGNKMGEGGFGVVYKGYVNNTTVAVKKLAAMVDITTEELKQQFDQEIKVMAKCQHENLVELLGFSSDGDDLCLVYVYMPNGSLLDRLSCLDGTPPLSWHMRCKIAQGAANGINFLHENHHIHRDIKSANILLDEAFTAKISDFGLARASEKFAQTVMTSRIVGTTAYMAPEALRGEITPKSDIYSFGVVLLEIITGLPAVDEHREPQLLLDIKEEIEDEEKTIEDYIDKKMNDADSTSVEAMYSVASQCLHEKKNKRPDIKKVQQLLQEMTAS
In words: In vitro IRAK4 kinase activity, 33P isotope-labeled kinase assay. The class given is biochemical. The procedure:
The IC50 values were determined using ^33P isotope-labeled kinase activity assay (Reaction Biology Corp) to evaluate the inhibitory ability of the tested compounds on human IRAK4.
(§1) Buffer conditions: 20 mM Hepes (pH 7.5), 10 mM MgCl2, 1 mM EGTA, 0.02% Brij35, 0.02 mg/mL BSA, 0.1 mM Na3VO4, 2 mM DTT, 1% DMSO.
Test procedure: At room temperature, the tested compound was dissolved in DMSO and a 10 mM solution was prepared for use. The substrate was dissolved in a newly prepared buffer solution, and the tested IRAK4 kinase was added thereto and mixed evenly. The DMSO solution dissolved with the tested compound was added to the above mixed evenly reaction solution using acoustic technique (Echo 550). After incubation for 15 minutes, ^33P-ATP was added to initiate the reaction. The reaction was carried out at room temperature for 120 minutes, and the reaction mixture was dropped on P81 ion exchange filter paper (Whatman #3698-915). The filter paper was washed repeatedly with 0.75% phosphoric acid solution, and the radioactivity of phosphorylated substrate residues on the filter paper was determined. The kinase activity data were expressed by comparing the kinase activity of the group containing the tested compound with the kinase activity of the blank group (only containing DMSO), and the IC50 value was obtained by curve fitting by Prism4 software (GraphPad), the experimental results were shown in Table 2.

In assay [2] the target is T2, human BTK (Homo sapiens, UniProt Q06187).
T2 construct: purchased Reaction Biology Corp
T2 sequence (Q06187 whole entry): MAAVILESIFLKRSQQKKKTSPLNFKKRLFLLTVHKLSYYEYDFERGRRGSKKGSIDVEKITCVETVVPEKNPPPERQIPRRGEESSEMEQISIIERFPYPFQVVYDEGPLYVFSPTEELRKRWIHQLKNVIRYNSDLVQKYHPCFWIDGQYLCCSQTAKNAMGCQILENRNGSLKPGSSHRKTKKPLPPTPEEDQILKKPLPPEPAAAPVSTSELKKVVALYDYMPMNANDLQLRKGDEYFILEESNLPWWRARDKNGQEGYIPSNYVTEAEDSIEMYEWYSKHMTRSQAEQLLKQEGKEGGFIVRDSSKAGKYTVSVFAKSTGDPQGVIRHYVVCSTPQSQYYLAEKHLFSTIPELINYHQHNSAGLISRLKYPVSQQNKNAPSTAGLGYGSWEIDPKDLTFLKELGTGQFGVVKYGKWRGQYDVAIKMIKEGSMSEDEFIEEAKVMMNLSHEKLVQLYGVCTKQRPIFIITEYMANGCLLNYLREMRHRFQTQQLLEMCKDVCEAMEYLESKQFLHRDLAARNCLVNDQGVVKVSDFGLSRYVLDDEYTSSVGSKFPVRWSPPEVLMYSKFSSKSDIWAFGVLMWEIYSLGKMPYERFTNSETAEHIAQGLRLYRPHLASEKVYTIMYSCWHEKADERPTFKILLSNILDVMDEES
The experiment in a line: In vitro BTK kinase activity, 33P isotope-labeled kinase assay. It is filed as biochemical. How it is done: The IC50 values were determined using ^33P isotope-labeled kinase activity assay (Reaction Biology Corp) to evaluate the inhibitory ability of the tested compounds on human BTK.
as §1
Test procedure: At room temperature, the tested compound was dissolved in DMSO and a 10 mM solution was prepared for use. The substrate was dissolved in a newly prepared buffer solution, and the BTK kinase was added thereto and mixed evenly. The compound dissolved in DMSO was added to the kinase reaction mixture through Echo 550 (Acoustic technology; Nanoliter range). After incubation for 20 minutes at room temperature, ^33P-ATP was added to initiate the reaction. The reaction was carried out at room temperature for 2 hours, and the radioactivity of the reaction solution drop was detected by filtration-binding method with P81 ion exchange filter paper. The kinase activity data were expressed by comparing the kinase activity of the group containing the tested compound with the kinase activity of the blank group (only containing DMSO), and the IC50 value was obtained by curve fitting by Prism4 software (GraphPad), the experimental results were shown in Table 3.

Assay [3] concerns TNF-α production in THP-1 cells. The experiment in a line: TNF-α ELISA in LPS-stimulated THP-1 cells. The class given is cell-based. Particulars: Homo sapiens, TNF-α in supernatant, 150 ng/mL LPS, 18 hours. The procedure: THP-1 human acute single cell leukemia cells were purchased from ATCC (Cat #TIB-202) and cultured at 37° C. in 5% CO2 incubator. The composition of medium was RPMI1640 (Gibco, Cat #22400-105), and the supplementary compositions were 10% FBS (Gibco, Cat #10091148); 1% PenStrep (Gibco, Cat #15140); 0.05 mM β-mercaptoethanol (Sigma, Cat #M6250).
TNF-α Elisa kit was used to detect the content of TNF-α in cell culture supernatant samples. TNF-α was produced by stimulating THP-1 cells with 150 ng/mL LPS (Sigma, Cat #L6529).
THP-1 cells cultured normally at logarithmic growth period were seeded in a 96-well plate (Corning #3599) at a certain concentration (1*10^5/100 μL) and then put into a cell incubator for incubation. After two hours, 16.7 μL of different concentrations of the compound to be tested (8*final concentration) were added and incubated in an incubator. After one hour, 16.7 μL of 1200 ng/mL LPS was added and incubated in an incubator. After 18 hours, the culture supernatant samples were collected by centrifugation, and the content of TNF-α could be detected by TNF-α Elisa kit. Finally, OD signals (OD450-OD570) were read on envision board reader.
The OD450-OD570 signal value was converted into a percentage inhibition rate.
Inhibition rate %=(ZPE−sample)/(ZPE−HPE)*100.
“HPE” referred to the OD450-OD570 signal value of the control well without LPS stimulated cells, and “ZPE” referred to the OD450-OD570 signal value of the control well with LPS stimulated cells. The IC50 value of the compound was calculated by XLFit in the excel add-in.
Y=Bottom+(Top−Bottom)/(1+(IC50/X)^HillSlope). Equation: […]
For orientation: ELISA stands for enzyme-linked immunosorbent assay.

For assay [4], the system named is OCI-LY10 human diffuse large B lymphoma cells. In words: OCI-LY10 cell proliferation (Cell Titer Glo). It is filed as cell-based. The conditions noted are these: 72 hours. The procedure: (§2) The tumor cell lines OCI-LY10 and TMD-8 were used to detect the effect of the compound of the disclosure on inhibiting tumor cell proliferation in vitro.
OCI-LY10 human diffuse large B lymphoma cells, from Nanjing Cobioer Biotechnology Co., Ltd
(§3) The compound was diluted with DMSO to a final concentration of 10 mM. The compound was freshly prepared and ready for use.
(§4) a) Logarithmic growth period cells were collected, counted, resuspended with complete culture medium, the cell concentration was adjusted to an appropriate concentration (determined according to the results of cell density optimization test), inoculated on 96-well plates, and 100 μL of cell suspension was added to each well. Cells were incubated in an incubator with 37° C., 100% relative humidity and 5% CO2 for 24 hours.
(§5) b) The compound to be tested was diluted to 50 μM with culture medium and then gradient diluted for 8 times. Cells were added with 25 μL/well. The final concentrations of the compound were from […], 3-fold gradient dilution, with a total of 9 concentration points.
(§6) c) Cells were incubated in an incubator with 37° C., 100% relative humidity and 5% CO2 for 72 hours;
(§7) d) 60 μL of CTG test reagent was added to the culture medium.
(§8) e) Shaked fully and reacted in the dark for 10 min. Luminescence was measured on ENVISION and the inhibition rate was calculated.
(§9) Cell growth inhibition rate %=[(RLUv−RLUs)/(RLUv−RLUb)]×100%
In general terms: In ATP-based viability assays light output follows the ATP content of the culture.

In assay [5] the test system is TMD-8 human diffuse large B lymphoma cells. In words: TMD-8 cell proliferation (Cell Titer Glo). It is filed as cell-based. Particulars: TMD8, 72 hours. How it is done:
as §2
TMD-8 human diffuse large B lymphoma cells, from Nanjing Cobioer Biotechnology Co., Ltd
as §3, §4, §5, §6, §7, §8, §9

In assay [6] the test system is OCI-LY3 cell line. The experiment in a line: OCI-LY3 cell proliferation (CTG). It is filed as cell-based. The conditions noted are these: Homo sapiens, 72 hours. How it is done: The tumor cell line OCI-LY3 was used to detect the effect of the compound of the disclosure on inhibiting tumor cell proliferation in vitro.
The tumor cell line used in this experiment was provided by Nanjing Cobioer Biotechnology Co., Ltd. See Table 6 below for specific information.
The OCI-LY3 cell line was cultured in the corresponding medium at 37° C. and 5% CO2, and the logarithmic growth period cells were used for experimental planking. The cells were collected and centrifuged at 800 rpm for 5 minutes, and the culture medium was re-suspended and spread in a 96-well plate. After being cultured overnight in 37° C., 5% CO2 incubator, drugs with different concentration gradients (10 μL of prepared diluent of test compound was added) were added, and incubated in 37° C., 5% CO2 incubator for 72 hours. The cell culture plate was incubated with CTG reagent at room temperature in the dark for 30 minutes and return to room temperature. CTG solution was added into the biosafety cabinet in the dark 100 μL/well, and was shaken and mixed evenly on plate shaker in the dark for 2 minutes, and incubated at room temperature in the dark for 10 minutes. The luminous value was read and recorded with Perkin Elmer Envision instrument.
The luminous value of the blank control group was subtracted from the luminous value measured at each drug concentration, the ratio of this value to DMSO group was taken as the cell inhibition rate (%). GraphPad software was used, the logarithm of drug concentration (log drug concentration) versus inhibition rate was plotted, and the IC50 value and 95% confidence value were automatically fitted and calculated by log (inhibitor) vs. response-variable slop (four parameters) algorithm of nonlinear regression by software.

Assay [7] has as its system human diffuse large B lymphoma TMD8 cell subcutaneous xenograft. The experiment in a line: TMD8 subcutaneous xenograft tumor model (WX009 study). It is filed as in vivo, SCID mouse. Particulars: 20 mg/kg QD PO, 18th day after administration. An excerpt: The formula for calculating the tumor inhibition rate TGI (%)=[1−(average tumor volume at the end of administration in a treatment group-average tumor volume at the beginning of administration in the treatment group))/(average tumor volume at the end of treatment in solvent control group-average tumor volume at the beginning of treatment in solvent control group)]×100%.

For assay [8] the test system is unchanged. In words: TMD8 subcutaneous xenograft tumor model (WX017 and WX027 study). The conditions noted are these: 20 mg/kg QD PO, 11th day after administration.
Protocol: a) TMD8 cells were cultured in RPMI-1640 medium containing 10% FBS and maintained in a 37° C. saturated humidity incubator with 5% CO2. TMD8 cells in logarithmic period were collected, resuspended in RPMI-1640 basal medium, and Matrigel was added at 1:1, and the cell concentration was adjusted to 4×10^7/mL. Under aseptic conditions, 0.1 mL of cell suspension was inoculated under the skin of the right back of SCID mice, and the inoculation concentration was 4×10^6/0.1 mL/mouse.
When the tumor grew to a certain size, the animals with too large, too small or irregular tumor shape were excluded, and the animals with tumor volume of 108.76-188.11 mm^3 were selected. According to the tumor volume, the animals were divided into 10 groups by random block method, with 6 mice in each group, and the average tumor volume was about 152.11 mm^3. The health status and death of animals were monitored every day, and routine examinations included observing the effects of tumor growth and drug treatment on daily behaviors of animals, such as behavioral activities, food intake and water intake, weight change (weight was measured twice a week), tumor size (tumor volume was measured twice a week), appearance signs or other abnormal conditions.
The formula for calculating tumor volume (TV) was: 1/2×a×b^2, where a and b were the measured length and width of the tumor respectively. The formula for calculating the tumor inhibition rate TGI (%)=[1−(average tumor volume at the end of administration in a treatment group-average tumor volume at the beginning of administration in the treatment group))/(average tumor volume at the end of treatment in solvent control group-average tumor volume at the beginning of treatment in solvent control group)]×100%.
In this study, the experimental data were all expressed by Mean±SEM. Statistical analysis was based on the data of RTV at the end of the experiment and analyzed by IBM SPSS Statistics software. T test was used to analyze the comparison between two groups, and one-way ANOVA was used to analyze the comparison between three or more groups. If the variance was even (there was no significant difference in F value), Tukey's method was used to analyze it, and if the variance was uneven (there was significant difference in F value), Games-Howell method was used to test it. p<0.05 was deemed to a significant difference.

Regarding `CC(C)(O)CCc1cn2cc(NC(=O)c3coc(-c4ccnc(N)c4)n3)c(N3CCCCC3)cc2n1` [WX001], the IC50 was found to be 1.8 nM in assay [1]; 7.9 nM in assay [2]; 20 nM in assay [3]; 29 nM in assay [4]; 10 nM in assay [5]; 57 nM in assay [6].
As for `CS(=O)(=O)CCc1cn2cc(NC(=O)c3coc(-c4ccnc(N)c4)n3)c(-c3ccccc3)cc2n1` [WX013], the IC50 was 1.8 nM in assay [1]; 2.9 nM in assay [2]; 6 nM in assay [3]; 8 nM in assay [4]; 20 nM in assay [5]; 34 nM in assay [6].
In the case of `CN(C)CCc1cn2cc(NC(=O)c3coc(-c4ccnc(N)c4)n3)c(-c3ccccc3)cc2n1` [WX016], the IC50 in assay [1] amounted to 2 nM; in assay [2] it was 1.6 nM; in assay [4] it was 3 nM; in assay [5], 6 nM; in assay [6] it was 37 nM.
Regarding `Cc1nccc(-c2nc(C(=O)Nc3cn4cc(C(C)(C)O)nc4cc3-c3ccccc3)co2)c1Cl` [WX036], the concentration for half-maximal inhibition (IC50) in assay [1] was 0.4 nM; in assay [3] it was 57.1 nM; in assay [4], 15.2 nM; in assay [5] it was 16.7 nM; in assay [6], 42 nM.
For `C=CC(=O)N1CCC[C@@H](n2nc(-c3ccc(Oc4ccccc4)cc3)c3c(N)ncnc32)C1` [ibrutinib, reference compound], the TGI in assay [7] was 12.95%; in assay [7] (listed as Ibrahim), 13%; in assay [8], 39%.

As usually defined, the IC50 is the concentration that gives 50% inhibition. The TGI is how far tumour growth fell short of that in controls. A high value points to much slowing of growth.
